How the values were obtained:
[1] = target: T1, A156T mutant of the HCV NS3/4A 1b protease enzyme (Hepatitis C virus genotype 1b, UniProt P26663, A1182T); assay: HCV protease FRET assay, A156T mutant; assay type: biochemical; settings: read-out: Inhibition, HCV A156T (IC50)
T1 construct: 10× stocks of NS3/4A protease enzyme from Bioenza; purchased Bioenza (Mountain View, Calif.)
Description: (§1) HCV Protease FRET Assay for Mutated NS3/4A 1b Enzymes
(§2) The protocol is a modified FRET-based assay (v—02) from In Vitro Resistance Studies of HCV Serine Protease Inhibitors, 2004, JBC, vol. 279, No. 17, pp 17508-17514. Inherent potency of compounds was assessed against A156S, A156T, D168A, and D168V mutants of the HCV NS3/4A 1b protease enzyme as follows:
(§3) Assay buffer: 2% CHAPS, 50 mM Tris pH 7.5, 50% glycerol, 2 μM M-2235 (Bachem) substrate. In a 50 μl reaction, add 49 μl assay buffer, 1 μl (1 U) HCV serine protease (Bioenza). Incubate 20 minutes at room temperature. The plate was read at either 350/460 nm (excitation/emission) on a fluorescent micro-plate reader or monitored at one-minute intervals to achieve the kinetic curve.
10× stocks of NS3/4A protease enzyme from Bioenza (Mountain View, Calif.) and 1.13×5-FAM/QXL™520 FRET peptide substrate from Anaspec (San Jose, Calif.) were prepared in 50 mM HEPES, pH 7.8, 100 mM NaCl, 5 mM DTT and 20% glycerol. […] Protease reactions were started with the addition of 45 μL of the FRET substrate and monitored for 120 minutes at λex487/λem514 through Quad^4 monochromoters in a Synergy^4 plate reader from BioTek (Winooski, Vt.). […]

[2] = target: T2, D168V mutant of the HCV NS3/4A 1b protease enzyme (Hepatitis C virus genotype 1b, UniProt P26663, D1194V); assay: HCV protease FRET assay, D168V mutant; assay type: biochemical; settings: read-out: Inhibition, HCV D168V (IC50)
T2 construct: 10× stocks of NS3/4A protease enzyme from Bioenza; purchased Bioenza (Mountain View, Calif.)
Description: as §1, §2, §3
10× stocks of NS3/4A protease enzyme from Bioenza (Mountain View, Calif.) and 1.13×5-FAM/QXL™520 FRET peptide substrate from Anaspec (San Jose, Calif.) were prepared in 50 mM HEPES, pH 7.8, 100 mM NaCl, 5 mM DTT and 20% glycerol. 5 μL of each enzyme were pre-incubated in a Corning (#3573) 384-well, black, non-treated microtiter plate (Corning, N.Y.) for 30 min at 25° C. with a 0.5 μL volume of 50% DMSO and serially diluted compounds prepared in 50% DMSO. Protease reactions were started with the addition of 45 μL of the FRET substrate and monitored for 120 minutes at λex487/λem514 through Quad^4 monochromoters in a Synergy^4 plate reader from BioTek (Winooski, Vt.). […] Initial velocity (0 minutes to 30+ minutes) from each reaction was determined from the slope of a plot of relative fluorescence units vs time (minutes) and then plotted against inhibitor concentration to estimate IC50 from log[Inhibitor] vs Response, Variable Slope model in GraphPad Prism from GraphPad Software (San Diego, Calif.). […]
The following protocol was used to generate “apparent” IC50 (IC50—APP)) values as depicted in Table 3, below. […] Protease reactions were immediately started after enzyme addition with the addition of 45 μL of the FRET substrate and monitored for 60-90 minutes at λex485/λem520 in a Synergy^4 plate reader from BioTek (Winooski, Vt.). […]

[3] = target: T3, R155K mutant of the HCV NS3/4A 1b protease enzyme (Hepatitis C virus genotype 1b, UniProt P26663, R1181K); assay: HCV protease FRET assay, R155K mutant; assay type: biochemical; settings: read-out: Inhibition, HCV R155K (IC50)
T3 construct: 10× stocks of NS3/4A protease enzyme from Bioenza; purchased Bioenza (Mountain View, Calif.)
From the text: HCV Protease FRET Assay for WT and Mutated NS3/4A 1b Enzymes (IC50 —APP)
The following protocol was used to generate “apparent” IC50 (IC50—APP)) values as depicted in Table 3, below. Without wishing to be bound by any particular theory, it is believed that IC50—APP, contrasted with IC50 values, may provide a more useful indication of time-dependent inhibition, and are thus more representative of binding affinity. The protocol is a modified FRET-based assay (v—03) developed to evaluate compound potency, rank-order and resistance profiles against wild type and C159S, A156S, A156T, D168A, D168V, R155K mutants of the HCV NS3/4A 1b protease enzyme as follows: 10× stocks of NS3/4A protease enzyme from Bioenza (Mountain View, Calif.) and 1.13×5-FAM/QXL™520 FRET peptide substrate from Anaspec (San Jose, Calif.) were prepared in 50 mM Tris-HCl, pH 7.5, 5 mM DTT, 2% CHAPS and 20% glycerol. 5 μL of each enzyme were added to Corning (#3575) 384-well, black, microtiter plates (Corning, N.Y.) after spotting a 0.5 μL volume of 50% DMSO and serially diluted compounds prepared in 50% DMSO. Protease reactions were immediately started after enzyme addition with the addition of 45 μL of the FRET substrate and monitored for 60-90 minutes at λex485/λem520 in a Synergy^4 plate reader from BioTek (Winooski, Vt.). […]

[4] = tested on: HCV RNA replicon in cell line ET (luc-ubi-neo/ET), human Huh7 hepatoma; assay: Luciferase reporter replicon assay (Example 5, Method C); assay type: cell-based; settings: Hepatitis C virus, Huh-7, 72 hr
Description: Method C: Luciferase Reporter Assay Protocol
The compounds were assayed to evaluate the antiviral activity and cytotoxicity of compounds using replicon-derived luciferase activity. This assay used the cell line ET (luc-ubi-neo/ET), which is a human Huh7 hepatoma cell line that contains an HCV RNA replicon with a stable luciferase (Luc) reporter and three cell culture-adaptive mutations. The ET cell line was grown in a 5% CO2 incubator at 37° C. in Dulbecco's modified essential media (DMEM), supplemented with 2 mM L-glutamine (“1%”), nonessential amino acids, 100 U of penicillin/mL, 100 μg of streptomycin/mL (“1%”), 10% fetal bovine serum and 400 μg/mL G418 (Geneticin; Invitrogen).
All cell culture reagents were obtained from Invitrogen (Carlsbad). Cells were trypsinized (1% trypsin:EDTA) and plated out at 5×10^3 cells/well in white 96-well assay plates (Costar) dedicated to cell number (cytotoxicity) or antiviral activity assessments. Test compounds were added at six 3-fold serial dilutions each and the assay was run in DMEM, 5% FBS, 1% pen-strep, 1% glutamine, 1% non essential amino acid. Human interferon alpha-2b (PBL Biolabs, New Brunswick, N.J.) was included in each run as a positive control compound. Cells were processed 72 hr post test compound addition when the cells were still subconfluent. Antiviral activity was measured by analyzing replicon-derived luciferase activity using the Steady-Glo Luciferase Assay System (Promega, Madison, Wis.) according to manufacturer's instruction. The number of cells in each well was determined by Cell Titer Blue Assay (Promega). Compound profile was derived by calculating applicable EC50 (effective concentration inhibiting virus replication by 50%), EC90 (effective concentration inhibiting virus replication by 90%), IC50 (concentration decreasing cell viability by 50%) and SI50 (selective index: […]) values.

## C=CC(=O)N(C)C[C@H](NC(=O)OC(C)(C)C)C(=O)N1C[C@H](OC(=O)N2Cc3cccc(F)c3C2)C[C@H]1C(=O)N[C@]1(C(=O)NS(=O)(=O)C2CC2)C[C@H]1C=C [Compound 4]
[1]
  IC50: < 0.01 µM
[2]
  IC50: 0.01 to 0.1 µM
[3]
  IC50: 0.01 to 0.1 µM
[4]; IC90, read-out: Inhibition, Replicon, IC90 value, Method C
  IC90: 0.01 to 0.1 µM
[4]; read-out: Inhibition, Replicon (IC50), Method C
  IC50: < 0.01 µM

## C=C[C@@H]1C[C@]1(NC(=O)[C@@H]1C[C@@H](Oc2cc(-c3ccccc3)nc3cc(OC)ccc23)CN1C(=O)C(NC(=O)OC(C)(C)C)[C@@H](C)OC(=O)/C=C/C)C(=O)NS(=O)(=O)C1CC1 (stereo partly shown) [Compound 3]
[1]
  IC50: 0.1 to 1 µM
[2]
  IC50: 1 to 10 µM

## CC(C)(C)OC(=O)NC1CN(C(=O)CCl)CCC/C=C\[C@@H]2C[C@@]2(C(=O)NS(=O)(=O)C2CC2)NC(=O)[C@@H]2C[C@@H](OC(=O)N3Cc4cccc(F)c4C3)CN2C1=O (stereo partly shown) [Compound 8]
[3]
  IC50: 0.01 to 0.1 µM
[4]; EC90, read-out: Inhibition, Replicon, EC90 value
  EC90: 0.1 to 1 µM
[4]; read-out: Inhibition, Replicon, EC50 value
  EC50: 0.01 to 0.1 µM
